# Biological target: T1, CCR2 (Homo sapiens, UniProt P41597)
# T1 construct: chemokine expressing cells (such as THP-1 cells for CCR2 assay or MOLT-4 cells for CCR9 assay); host or cells: THP-1 cells
# Test: chemotaxis (conventional migration), ligand binding or calcium mobilization (calcium flux) assays
# Type: cell-based
# Protocol: THP-1 cells and MOLT-4 cells were obtained from the American Type Culture Collection (Manassas, Va.) and cultured in RPMI tissue culture medium supplemented with 10% fetal calf serum (FCS) in a humidified 5% CO2 incubator at 37° C. Recombinant human chemokine proteins MCP-1 and TECK were obtained from R&D Systems (Minneapolis, Minn.). ^125I-labeled MCP-1 protein was obtained from Amersham (Piscataway, N.J.). ChemoTX® chemotaxis microchambers were purchased from Neuro Probe (Gaithersburg, Md.). CyQUANT® cell proliferation kits were purchased from Molecular Probes (Eugene, Oreg.). Calcium indicator dye Fluo-4 AM was purchased from Molecular Devices (Mountain View, Calif.).
# Conventional-migration assay was used to determine the efficacy of potential receptor antagonists in blocking migration mediated through chemokines (such as CCR2 or CCR9). This assay was routinely performed using the ChemoTX® microchamber system with a 5-μm pore-sized polycarbonate membrane. To begin such an assay, chemokine expressing cells (such as THP-1 cells for CCR2 assay or MOLT-4 cells for CCR9 assay) were harvested by centrifugation of cell suspension at 1000 RPM on a GS-6R Beckman centrifuge. The cell pellet was resuspended in chemotaxis buffer (HBSS with 0.1% BSA) at 10×10^6cells/mL for CCR2 assay (5 ×10^6cells/mL for CCR9 assay). Test compounds at desired concentrations were prepared from 10 mM stock solutions by serial dilutions in chemotaxis buffer. An equal volume of cells and compounds were mixed and incubated at room temperature for 15 minutes. Afterwards, 20 μL of the mixture was transferred onto the porous membrane of a migration microchamber, with 29 μL of chemokine ligand (0.1 nM chemokine MCP-1 protein for CCR2 assay or 50 nm chemokine TECK protein for CCR9 assay) placed at the lower chamber. Following an incubation at 37° C. (90-minute for CCR2; 150-minute for CCR9), during which cells migrated […] the chemokine gradient, the assay was terminated by removing the cell drops from atop the filter. To quantify cells migrated across the membrane, 5 μL of 7X CyQUANT® solution was added to each well in the lower chamber, and the fluorescence signal measured on a Spectrafluor Plus fluorescence plate reader (TECAN, Durham, N.C.). The degree of inhibition was determined by comparing migration signals between compound-treated and untreated cells. IC50 calculation was further performed by non-linear squares regression analysis using Graphpad Prism (Graphpad Software, San Diego, Calif.).
# Calcium flux assay measures an increase in intracellular calcium following ligand-induced receptor activation. In the screen of chemokine antagonists, it was used as a secondary assay carried out on a FLIPR® machine (Molecular Devices, Mountain View, Calif.). To begin an assay, chemokine expressing cells (such as THP-1 cells for CCR2 assay or MOLT-4 cells for CCR9 assay) were harvested by centrifugation of cell suspension, and resuspended to 1.5×10^6 cells/mL in HBSS (with 1% fetal calf serum). Cells were then labeled with a calcium indicator dye Fluo-4 AM for 45 minutes at 37° C. with gentle shaking. Following incubation, cells were pelletted, washed once with HBSS and resuspended in the same buffer at a density of 1.6×10^6 cells/mL. One hundred microliters of labeled cells were mixed with 10 μL of test compound at the appropriate concentrations on an assay plate. Chemokine protein (MCP-1 at a final concentration of 0.1 nM for CCR2 assay or TECK at a final concentration of 25 nM for CCR9 assay) to activate the receptor. The degree of inhibition was determined by comparing calcium signals between compound-treated and untreated cells. IC50 calculations were further performed by non-linear squares regression analysis using Graphpad Prism (Graphpad Software, San Diego, Calif.).
# Ligand binding assay was used to determine the ability of potential CCR2 antagonists to block the interaction between CCR2 and its ligand MCP-1. […]
# [1] = Table 2: activity in one of the chemotaxis
# [2] = Table 3: activity in one of the chemotaxis
# T1 sequence (P41597 whole entry): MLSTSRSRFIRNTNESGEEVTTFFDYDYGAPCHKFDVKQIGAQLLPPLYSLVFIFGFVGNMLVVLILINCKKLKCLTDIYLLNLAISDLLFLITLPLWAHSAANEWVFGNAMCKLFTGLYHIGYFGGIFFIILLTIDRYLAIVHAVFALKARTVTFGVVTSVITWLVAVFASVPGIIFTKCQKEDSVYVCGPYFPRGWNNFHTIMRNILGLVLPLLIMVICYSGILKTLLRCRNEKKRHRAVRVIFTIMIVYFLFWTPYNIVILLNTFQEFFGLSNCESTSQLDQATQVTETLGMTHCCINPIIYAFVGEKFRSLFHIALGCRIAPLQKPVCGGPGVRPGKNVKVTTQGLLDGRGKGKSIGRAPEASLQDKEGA
SMILES,IC50 [1],IC50 [2]
O=S(=O)(Nc1cc(Cl)ccc1C(O)c1ccccc1)c1ccc(Cl)c(C(F)(F)F)c1 (stereo not shown),< 500 nM,–
O=C(c1ccncc1)c1ccc(Cl)cc1NS(=O)(=O)c1ccc(Cl)c(C(F)(F)F)c1,< 500 nM,–
COC(=O)C1CCCN1C(=O)c1ccc(Cl)cc1NS(=O)(=O)c1ccc(Cl)c(C(F)(F)F)c1 (stereo not shown),< 500 nM,–
O=S(=O)(Nc1cc(Cl)ccc1Oc1ccccc1)c1ccc(Cl)c(C(F)(F)F)c1,< 500 nM,–
O=C(c1ccc(Cl)cc1NS(=O)(=O)c1ccc(Cl)c(C(F)(F)F)c1)N1CCOCC1,< 500 nM,–
Cn1cncc1C(=O)c1ccc(Cl)cc1NS(=O)(=O)c1ccc(Cl)c(C(F)(F)F)c1,< 500 nM,–
O=C(c1ccc(Cl)cc1NS(=O)(=O)c1ccc(Cl)c(C(F)(F)F)c1)N1CCS(=O)(=O)CC1,< 500 nM,–
CN(C)C(=O)C1CCCN1C(=O)c1ccc(Cl)cc1NS(=O)(=O)c1ccc(Cl)c(C(F)(F)F)c1 (stereo not shown),< 500 nM,–
O=C(c1ccccc1)c1ccc(Cl)cc1NS(=O)(=O)c1ccc(F)c(F)c1,< 500 nM,–
O=C(c1ccccc1)c1ccc(Cl)cc1NS(=O)(=O)c1cccc(C(F)(F)F)c1,< 500 nM,–
O=C(c1ccccc1)c1ccc(Cl)cc1NS(=O)(=O)c1ccc(Cl)cc1,< 500 nM,–
O=C(c1ccc(Cl)cc1NS(=O)(=O)c1ccc(Cl)c(C(F)(F)F)c1)N1CCCC1,< 500 nM,–
O=C(c1cocn1)c1cc(Cl)ccc1NS(=O)(=O)c1ccc(Cl)c(C(F)(F)F)c1,< 500 nM,–
O=C(c1cccnc1)c1cc(F)c(F)cc1NS(=O)(=O)c1ccc(Cl)c(C(F)(F)F)c1,< 500 nM,–
O=C(c1ccc(Cl)cc1NS(=O)(=O)c1ccc(Cl)c(Cl)c1)N1CCOCC1,< 500 nM,–
O=C(c1ccccc1)c1ccc(Br)cc1NS(=O)(=O)c1ccc(Cl)c(C(F)(F)F)c1,< 500 nM,–
O=C(c1cccnc1)c1cc(Cl)ccc1NS(=O)(=O)c1ccc(Cl)c(Cl)c1,< 500 nM,–
Cc1ccc(C(=O)c2cc(Cl)ccc2NS(=O)(=O)c2ccc(Cl)c(Cl)c2)cn1,< 500 nM,–
O=C(O)c1cc(S(=O)(=O)Nc2ccc(Cl)cc2C(=O)c2ccccc2)c(F)cc1Cl,< 500 nM,–
Cn1nc(-c2cc(Cl)ccc2NS(=O)(=O)c2ccc(Cl)c(C(F)(F)F)c2)c2ccccc21,< 500 nM,–
O=C(c1ccc(Cl)cc1NS(=O)(=O)c1ccc(Cl)c([N+](=O)[O-])c1)N1CCOCC1,< 500 nM,–
Cn1nnnc1-c1ccc(Cl)cc1NS(=O)(=O)c1ccc(Cl)c(C(F)(F)F)c1,< 500 nM,–

SMILES,IC50 [1],IC50 [2]
O=C(c1ccccc1)c1ccc(F)cc1NS(=O)(=O)c1ccc(Cl)c(C(F)(F)F)c1,< 500 nM,–
Cc1cc(S(=O)(=O)Nc2cc(Cl)ccc2C(=O)N(C)c2ccccn2)ccc1Cl,< 500 nM,–
CN(C(=O)c1ccc(Cl)cc1NS(=O)(=O)c1cccc(C(F)(F)F)c1)c1ccccn1,< 500 nM,–
O=C(c1ccc(Cl)cc1NS(=O)(=O)c1ccc(Cl)c(C(F)(F)F)c1)c1ccnc2[nH]ccc12,< 500 nM,–
CO/N=C(/c1ccc(Cl)cc1NS(=O)(=O)c1ccc(Cl)c(C(F)(F)F)c1)c1ccnc2[nH]ccc12,< 500 nM,–
Cc1nnc(-c2cc(Cl)ccc2NS(=O)(=O)c2ccc(C(C)(C)C)cc2)c2ccccc12,< 500 nM,–
CC(C)(C)c1ccc(S(=O)(=O)Nc2ccc(Cl)cc2-c2nncc3ccccc23)cc1,< 500 nM,–
N#Cc1cc(S(=O)(=O)Nc2cc(Cl)ccc2C(=O)c2ccccc2)ccc1F,–,500 to 5000 nM
Cc1ccc(C(=O)c2ccccc2)c(NS(=O)(=O)c2ccc(Cl)c(C(F)(F)F)c2)c1,–,500 to 5000 nM
COc1ccc(NS(=O)(=O)c2ccc(Cl)c(Cl)c2)c(C(=O)N2CCOCC2)c1,–,500 to 5000 nM
O=C(c1ccccn1)c1cc(Cl)ccc1NS(=O)(=O)c1ccc(Cl)c(C(F)(F)F)c1,–,500 to 5000 nM
Cn1ccnc1C(=O)c1cc(Cl)ccc1NS(=O)(=O)c1ccc(Cl)c([N+](=O)[O-])c1,–,500 to 5000 nM
O=S(=O)(Nc1ccccc1Oc1ccccc1)c1ccc(Cl)c(Cl)c1,–,500 to 5000 nM
CNC(=O)C1CCCN1C(=O)c1ccc(Cl)cc1NS(=O)(=O)c1ccc(Cl)c(C(F)(F)F)c1 (stereo not shown),–,500 to 5000 nM
O=C(c1ccccn1)c1cc(Cl)ccc1NS(=O)(=O)c1ccc(Cl)c(Cl)c1,–,500 to 5000 nM
O=C(c1ccc(Cl)cc1NS(=O)(=O)c1ccc(Cl)cc1)N1CCOCC1,–,500 to 5000 nM
O=C(c1cc(Br)ccc1NS(=O)(=O)c1ccc(Cl)cc1)N1CCOCC1,–,500 to 5000 nM
O=C(c1ccccc1)c1cc(Cl)ccc1NS(=O)(=O)c1cccc(C(F)(F)F)c1,–,500 to 5000 nM
O=C(c1cc(Cl)ccc1NS(=O)(=O)c1ccc(Cl)cc1)N1CCOCC1,–,500 to 5000 nM
O=C(c1ccccc1)c1cc(Cl)ccc1NS(=O)(=O)c1ccc(F)c(Cl)c1,–,500 to 5000 nM
O=C(c1ccncc1)c1cc(Cl)ccc1NS(=O)(=O)c1ccc(Cl)cc1,–,500 to 5000 nM
Cc1cccc(S(=O)(=O)Nc2ccc(Cl)cc2C(=O)N2CCOCC2)c1,–,500 to 5000 nM

SMILES,IC50 [1],IC50 [2]
O=C(c1cc(Cl)ccc1NS(=O)(=O)c1cccc(Cl)c1)N1CCOCC1,–,500 to 5000 nM
O=C(c1cc(Cl)ccc1NS(=O)(=O)c1ccc(Cl)c(Cl)c1)N1CCOCC1,–,500 to 5000 nM
O=C(c1cc(Cl)ccc1NS(=O)(=O)c1ccc(Cl)cc1Cl)N1CCOCC1,–,500 to 5000 nM
Cc1cc(S(=O)(=O)Nc2cc(Cl)ccc2C(=O)N2CCOc3cccnc32)ccc1Cl,–,500 to 5000 nM
O=C(c1cc(Cl)ccc1NS(=O)(=O)c1ccc(Br)cc1)N1CCOCC1,–,500 to 5000 nM
O=C(c1cc(Cl)ccc1NS(=O)(=O)c1ccc(Cl)cc1)N1CCCCC1,–,500 to 5000 nM
O=C(c1ccc(Cl)cc1NS(=O)(=O)c1ccc(C(F)(F)F)cc1Cl)N1CCOCC1,–,500 to 5000 nM
CON=C(c1ccccc1)c1cc(Cl)ccc1NS(=O)(=O)c1ccc(Cl)c(Cl)c1,–,500 to 5000 nM
O=S(=O)(Nc1ccc(Cl)cc1Oc1ccccc1)c1ccc(Cl)c(Cl)c1,–,500 to 5000 nM
Cn1ccnc1C(=O)c1cc(Cl)ccc1NS(=O)(=O)c1ccc(Cl)c(Cl)c1,–,500 to 5000 nM
COC(=O)c1cc(NS(=O)(=O)c2ccc(Cl)c(Cl)c2)c(C(=O)c2ccccc2)cc1Cl,–,500 to 5000 nM
O=C(c1ccccc1)c1cc(Cl)ccc1NS(=O)(=O)c1ccc(Cl)c([N+](=O)[O-])c1,–,500 to 5000 nM
Cc1ccc(S(=O)(=O)Nc2ccc(Cl)cc2C(=O)c2ccccc2)cc1Cl,–,500 to 5000 nM
O=C(c1ccccc1)c1cc(Cl)ccc1NS(=O)(=O)c1ccc(C(F)(F)F)cc1[N+](=O)[O-],–,500 to 5000 nM
O=S(=O)(Nc1ccc(Cl)cc1-c1ccccc1)c1ccc(Cl)c(Cl)c1,–,500 to 5000 nM
O=S(=O)(Nc1cc(Cl)ccc1-c1nnn[nH]1)c1ccc(Cl)c(C(F)(F)F)c1,–,500 to 5000 nM
O=S(=O)(Nc1cc(Cl)ccc1-c1ncco1)c1ccc(Cl)c(Cl)c1,–,500 to 5000 nM
O=S(=O)(Nc1ccc(Cl)cc1-c1ccccn1)c1ccc(Cl)c(C(F)(F)F)c1,–,500 to 5000 nM
O=C(O)C1CCCN1C(=O)c1ccc(Cl)cc1NS(=O)(=O)c1ccc(Cl)c(C(F)(F)F)c1 (stereo not shown),–,500 to 5000 nM
O=C(c1ccc(Cl)cc1NS(=O)(=O)c1ccc(Br)c(F)c1)N1CCOCC1,–,500 to 5000 nM
